Assay results taken from publication PMC3794980, “Identification of Conserved and HLA Promiscuous DENV3 T-Cell Epitopes” (PLoS Neglected Tropical Diseases, 2013).
Read-outs that look alike come from different tables or passages of the source.

Columns and labels:
Test in all cases: biochemical
Format in all cases: binding
DRB1*0101 = DRB1*0101 (Homo sapiens, UniProt P01903+P01911, A100R/D57E/F55L/F60I/F76Y/I96L/L162R/M171V/P40L/Q125E/R42F/V115G/Y59C)
DRB1*0301 = DRB1*0301 (Homo sapiens, UniProt P01903+P01911, A100K/A102G/A103R/A169T/F55Y/I96L/K41T/L162R/M171V/P40S/Q125H/Q178H/Q39Y/R42S/S66N/T106N/T262R/W38E/Y61H)
DRB1*0405 = DRB1*0405 (Homo sapiens, UniProt P01903+P01911, A100R/A169T/D86S/F76Y/I96L/K127E/L162R/M171V/N62H/P40V/Q125Y/R42H/S133A/S149N/S66Y/V115G/V209L/W38E)
DRB1*0901 = DRB1*0901 (Homo sapiens, UniProt P01903+P01911, A100R/A103E/D57H/D86V/F55Y/F60I/F76Y/I96F/K127E/L162R/M171V/P40D/Q125H/Q99R/R33Q/R42F/S133A/S66N/T210M/V115G/W38K/Y107V/Y59G/Y89S)
DRB4*0101 = DRB4*0101 (Homo sapiens, UniProt P01903+P13762, G164S)
DRB1*0701 = DRB1*0701 (Homo sapiens, UniProt P01903+P01911, A100R/A102G/A103Q/D57E/D86V/E43K/F76Y/K127E/L162R/M171V/P40G/Q125H/Q99D/R33Q/R42Y/R54Q/S133A/S66F/T210M/V115G/Y107V/Y59L/Y89S)
DRB1*0401 = DRB1*0401 (Homo sapiens, UniProt P01903+P01911, A100K/A169T/F76Y/I96L/K127E/L162R/M171V/N62H/P40V/Q125Y/R42H/S133A/S149N/S66Y/V115G/V209L/W38E)
DRB1*0404 = DRB1*0404 (Homo sapiens, UniProt P01903+P01911, A100R/A169T/F76Y/I96L/K127E/L162R/M171V/N62H/P40V/Q125Y/R42H/S133A/S149N/S66Y/V209L/W38E)
DRB1*1501 = DRB1*1501 (Homo sapiens, UniProt P01903+P01911)
DRB1*0802 = DRB1*0802 (Homo sapiens, UniProt P01903+P01911, A100R/A103L/A169T/F76Y/H45Y/I96F/K41T/L162R/M171V/P40S/Q125H/Q178H/Q39Y/Q99D/R218S/R42G/S66Y/V115G/W38E)
DRB3*0101 = DRB3*0101 (Homo sapiens, UniProt P01903+P79483)
DRB1*1302 = DRB1*1302 (Homo sapiens, UniProt P01903+P01911, A100E/A169T/K41T/L162R/M171V/P40S/Q125H/Q178H/Q39Y/Q99D/R42S/S66N/T262R/V115G/W38E/Y61H)
DRB5*0101 = DRB5*0101 (Homo sapiens, UniProt P01903+Q30154)
DRB1*1101 = DRB1*1101 (Homo sapiens, UniProt P01903+P01911, A100R/A169T/A87E/I96F/K41T/L162R/M171V/P40S/Q125H/Q178H/Q39Y/Q99D/R42S/S66Y/T262R/V115G/W38E)
[1] = competitive inhibition of radiolabeled standard peptide, '-' distinct from ND, read-out: Binding Affinity (nM) DRB1*0901
[2] = competitive inhibition of radiolabeled standard peptide, '-' distinct from ND, read-out: Binding Affinity (nM) DRB1*1302
[3] = competitive inhibition of radiolabeled standard peptide, DRB1*0901, read-out: Binding Affinity (nM) DRB1*0901
[4] = competitive inhibition of radiolabeled standard peptide, DRB1*1302, read-out: Binding Affinity (nM) DRB1*1302

Chain of DRB1*1302 (P01903 26-254 limits assumed, other chains not shown): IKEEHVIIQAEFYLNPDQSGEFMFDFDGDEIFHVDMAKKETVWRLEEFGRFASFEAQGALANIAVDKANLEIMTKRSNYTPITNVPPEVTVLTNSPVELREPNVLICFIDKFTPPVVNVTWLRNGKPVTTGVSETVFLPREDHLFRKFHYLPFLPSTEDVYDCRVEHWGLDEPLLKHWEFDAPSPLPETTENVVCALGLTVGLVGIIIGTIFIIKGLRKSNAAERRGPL
Chain of DRB1*0301 (P01903 26-254, other chains not shown): as the sequence (P01903 26-254 limits assumed, other chains not shown) above
Chain of DRB1*1101 (P01903 26-254, other chains not shown): as the sequence (P01903 26-254 limits assumed, other chains not shown) above

`CSCC[C@H](NC(=O)[C@H](CC(C)C)NC(=O)[C@H](CCCNC(=N)N)NC(=O)[C@H](Cc1c[nH]cn1)NC(=O)[C@H](CC(=O)O)NC(=O)[C@H](CS)NC(=O)[C@H](CC(C)C)NC(=O)[C@H](CCC(N)=O)NC(=O)[C@@H](NC(=O)[C@H](Cc1ccc(O)cc1)NC(=O)[C@@H](NC(=O)[C@@H](N)CCC(=O)O)C(C)C)[C@@H](C)O)C(=O)N[C@@H](CO)C(=O)N[C@@H](C)C(=O)N[C@@H](C)C(=O)O` [NS1 173-187] was tested, and the IC50 (DRB1*0101) was 26 nM, the IC50 (DRB1*0301) was 787 nM and the IC50 (DRB1*0405) was 1450 nM. For the same compound, the IC50 (DRB1*0901; [1]) was 608 nM, the IC50 (DRB4*0101) was 6150 nM and the IC50 (DRB1*0701) was 1660 nM. It also gave an IC50 (DRB1*0401) of 502 nM, an IC50 (DRB1*0404) of 1290 nM and an IC50 (DRB1*1501) of 1040 nM. It also gave an IC50 (DRB1*0802) of 900 nM, an IC50 (DRB3*0101) of 57 nM and an IC50 (DRB1*1302; [2]) of 4600 nM. It also gave an IC50 (DRB5*0101) of 753 nM.

`CC[C@H](C)[C@H](NC(=O)[C@H](CC(C)C)NC(=O)[C@H](CC(N)=O)NC(=O)[C@H](Cc1ccc(O)cc1)NC(=O)[C@H](CC(N)=O)NC(=O)[C@@H]1CCCN1)C(=O)N[C@H](C(=O)N[C@@H](CCSC)C(=O)N[C@@H](CC(=O)O)C(=O)N[C@@H](CCC(=O)O)C(=O)N[C@@H](C)C(=O)N[C@@H](Cc1c[nH]cn1)C(=O)N[C@@H](Cc1ccccc1)C(=O)N[C@H](C(=O)N[C@@H](CC(=O)O)C(=O)O)[C@@H](C)O)[C@@H](C)CC` [NS3 277-291] showed an IC50 (DRB1*0301) of 37 nM, an IC50 (DRB1*0405) of 402 nM and an IC50 (DRB1*0901; [1]) of 2600 nM. It also gave an IC50 (DRB1*1101) of 4610 nM, an IC50 (DRB4*0101) of 208 nM and an IC50 (DRB1*0701) of 2700 nM. For the same compound, the IC50 (DRB1*0404) was 1530 nM, the IC50 (DRB1*1501) was 1320 nM and the IC50 (DRB1*0802) was 396 nM. It also gave an IC50 (DRB3*0101) of 4.4 nM, an IC50 (DRB1*1302; [2]) of 68 nM and an IC50 (DRB5*0101) of 7130 nM.

`CC[C@H](C)[C@H](NC(=O)[C@@H](N)CCCCN)C(=O)N1CCC[C@H]1C(=O)NCC(=O)NCC(=O)N[C@@H](C)C(=O)N[C@@H](CCSC)C(=O)N[C@@H](Cc1ccc(O)cc1)C(=O)N[C@@H](C)C(=O)N[C@@H](CC(=O)O)C(=O)N[C@@H](CC(=O)O)C(=O)N[C@H](C(=O)N[C@@H](C)C(=O)NCC(=O)N[C@@H](Cc1c[nH]c2ccccc12)C(=O)N[C@@H](CC(=O)O)C(=O)N[C@H](C(=O)O)[C@@H](C)O)[C@@H](C)O` [NS5 523-539] was tested, and the IC50 (DRB1*0101) was 733 nM, the IC50 (DRB1*0301) was 9.3 nM and the IC50 (DRB1*0405) was 3170 nM. The IC50 (DRB1*0901; [3]) was 13200 nM, the IC50 (DRB4*0101) was 445 nM and the IC50 (DRB1*0701) was 6560 nM. For the same compound, the IC50 (DRB1*0401) was 7.3 nM, the IC50 (DRB1*0404) was 3130 nM and the IC50 (DRB1*1501) was 15100 nM. It also gave an IC50 (DRB1*0802) of 1160 nM, an IC50 (DRB3*0101) of 45 nM and an IC50 (DRB1*1302; [4]) of 1430 nM. It also gave an IC50 (DRB5*0101) of 4120 nM.

For `CC[C@H](C)[C@H](NC(=O)[C@H](C)NC(=O)[C@H](CC(N)=O)NC(=O)[C@H](C)NC(=O)[C@H](CC(C)C)NC(=O)[C@H](CCC(N)=O)NC(=O)[C@H](CCCNC(=N)N)NC(=O)[C@H](Cc1c[nH]cn1)NC(=O)[C@H](CCC(=O)O)NC(=O)[C@@H]1CCCN1)C(=O)N[C@@H](Cc1ccccc1)C(=O)N[C@@H](CCCCN)C(=O)N[C@@H](CC(C)C)C(=O)N[C@H](C(=O)N[C@@H](Cc1ccc(O)cc1)C(=O)N[C@@H](CCC(N)=O)C(=O)N[C@@H](CC(N)=O)C(=O)O)[C@@H](C)O` [NS5 558-574], the IC50 (DRB1*0101) was 489 nM, the IC50 (DRB1*0301) was 586 nM and the IC50 (DRB1*0405) was 667 nM. The IC50 (DRB1*0901; [3]) was 1930 nM, the IC50 (DRB1*0701) was 134 nM and the IC50 (DRB1*0401) was 2820 nM. It also gave an IC50 (DRB1*0404) of 2650 nM, an IC50 (DRB1*1501) of 401 nM and an IC50 (DRB1*0802) of 539 nM. The IC50 (DRB3*0101) was 1080 nM, the IC50 (DRB1*1302; [4]) was 1400 nM and the IC50 (DRB5*0101) was 391 nM.

`CC[C@H](C)[C@H](NC(=O)[C@H](C)NC(=O)[C@H](CC(N)=O)NC(=O)[C@H](C)N)C(=O)N[C@@H](Cc1ccccc1)C(=O)N[C@@H](CCCCN)C(=O)N[C@@H](CC(C)C)C(=O)N[C@H](C(=O)N[C@@H](Cc1ccc(O)cc1)C(=O)N[C@@H](CCC(N)=O)C(=O)N[C@@H](CC(N)=O)C(=O)N[C@@H](CCCCN)C(=O)N[C@H](C(=O)N[C@H](C(=O)N[C@@H](CCCCN)C(=O)N[C@H](C(=O)N[C@@H](CCC(N)=O)C(=O)O)C(C)C)C(C)C)C(C)C)[C@@H](C)O` [NS5 564-580] was tested, and the IC50 (DRB1*0101) was 19 nM, the IC50 (DRB1*0301) was 222 nM and the IC50 (DRB1*0405) was 1680 nM. For the same compound, the IC50 (DRB1*0901) was 100 nM, the IC50 (DRB1*0701) was 25 nM and the IC50 (DRB1*0401) was 390 nM. The IC50 (DRB1*0404) was 4810 nM, the IC50 (DRB1*1501) was 28 nM and the IC50 (DRB1*0802) was 2600 nM. The IC50 (DRB3*0101) was 576 nM, the IC50 (DRB1*1302) was 11 nM and the IC50 (DRB5*0101) was 305 nM.
